From patent US8173668B1 (Alcon Research, Ltd., priority 2007, dated 2012)

Tests used:
[1] = tested on: h-CM cells; test: Prostaglandin production in h-CM cells; format: cell-based, human; settings: 1-10 μM
Procedure: A functional assay to discover BK agonists may involve the measurement of prostaglandin E2 (PGE2) production (Wiernas et al. Brit. J. Pharmacol. 123: 1127-1137, 1998), for instance, in cells isolated from human or animal ocular or non-ocular tissues, or cells expressing recombinant (preferably human) BK receptors. Cells expressing BK receptors are seeded in 48-wells culture plates and allowed to reach confluence. After this time the cells are rinsed twice with 0.5 mL of phosphate buffered saline and incubated with the test agent made up in 0.5 mL Dulbeco's modified Eagle's medium (DMEM)/F-12 for 1 h at 37° C. […]
After this incubation, all tubes are placed in an ice-bath and 1 ml cold precipitating reagent supplied in the kit is added to the tubes, the content mixed and incubated for 25 min at 4° C. […] The supernatants of all tubes are decanted as specified in the kit instructions and the RIA samples analyzed on a gamma-counter. The levels of PGE2 generated by the test agent are then quantified in comparison with the PGE2-standard curve. Dose-response data for the test agent are constructed and the potency and intrinsic activity determined as described above for other assays. […]

[2] = tested on: ocular hypertensive eyes of ketamine-sedated cynomolgus monkeys; test: Aqueous humor dynamics (fluorophotometry, tonography) in ketamine-sedated cynomolgus monkeys; format: in vivo; settings: Treatment Day, Hypertensive Eye OS; one drop of 30 μl 0.01% the day before; mean ± SD
From the text: Methods used in this Example were described by Yablonski et al. Invest Ophthalmol V is Sci 1987; 28:2076-2082; Hayashi et al. Exp Eye Res 1989; 48:621-625; Mäepea et al. Exp Eye Res 1989; 49:645-663, and as below:
Twelve female cynomolgus monkeys between the ages of 5 and 8 years were included in the study. All had unilateral laser treatment to the trabecular meshwork of the left eye. Lasering had been done between 2 and 4 years before the study.
Measurements were made on baseline day and after AL-42205-01 (FR-190997) treatment to both eyes. When necessary, sedation was induced by ketamine hydrochloride (HCl), 1 to 5 mg/kg, administered intramuscularly 5 minutes before a measurement to achieve pharmacological restraint. Animals were seated in specially designed chairs for all tonometry and fluorophotometry measurements. Fifteen hours prior to each study day, IOP1 was measured with a pneumatonometer (Classic 30, Xomed, Jacksonville, Fla.) after topical application of proparacaine HCl, 0.13%. Fluorescein (10%) was applied to the cornea by topical drops. Measurements commenced at 8:30-9:00 a.m. the following day with tonometry (IOP2). The fluorescence of the cornea and anterior chamber were measured in duplicate with a scanning fluorophotometer (Fluorotron, OcuMetrics, Palo Alto, Calif.). Scans were taken at 45 minute intervals for a total of 4 sets.
After the fourth set of scans and another IOP measurement (IOP3), an intramuscular injection of acetazolamide (12-20 mg/kg) was administered to reduce IOP by reducing aqueous flow. The dose of acetazolamide for individual monkeys depended on its IOP efficacy in previous studies. Fluorophotometric scans and IOP measurements were repeated 0.75, 1.50 and 2.25 hours after acetazolamide injection. Fluorophotometric outflow facility (Cfl) was calculated as the ratio of the change in aqueous flow to the change in IOP. Uveoscleral outflow (Fus) was calculated by the equation Fus=Fa−Cfl (IOP3−Pev) where Pev is the episcleral venous pressure. A value of 15 mmHg was used. The final measurement was two-minute tonography. The tonography mode of the pneumatonometer was used. Calculations were made using PowerLab and Excel.
Treatment measurements were collected between 6 and 21 days after baseline measurements. The day before the measurement day, conscious IOP was measured (IOP1; 9:00 AM) and one drop of 30 μl of AL-42205-01 0.01% (in matrix vehicle) was applied to both eyes. The drug was used within a week of receipt. It was stored refrigerated before use. Conscious IOP was measured again (IOP2; 5 PM) just before fluorescein was applied as before. The day of fluorophotometry, all measurements were made under sedation as on baseline day.
Values were compared between eyes on each day and baseline values were compared with post-treatment values using Student's two-tailed paired t-test (Table 11). Values are reported as means± standard deviation (SD).

Q: Which results are given for `CNC(=O)c1ccc(/C=C/C(=O)NCC(=O)N(C)c2ccc(Cl)c(COc3cccc4c(OCc5ccccn5)cc(C)nc34)c2Cl)cc1` [FR-190997]?
A: production of prostaglandins [1]: 1.75 fold above basal; Cfl, fluorophotometric outflow facility [2]: 0.18 ± 0.16 μl/min/mmHg; Cton, tonographic outflow facility [2]: 0.17 ± 0.11 μl/min/mmHg; Fa, aqueous flow [2]: 1.48 ± 0.53 µL/min; Fufl, uveoscleral outflow calculated with Cfl [2]: 1.23 ± 0.91 µL/min; Futon, uveoscleral outflow calculated with Cton [2]: 1.45 ± 0.45 µL/min
